Test results from US9938258B2 (Karyopharm Therapeutics Inc., priority 2012, dated 2018).
Like-named read-outs stand apart in the source and are kept apart here.

How the values were obtained:
MS751 cells = experiment: MTT cell proliferation assay, MS751; format: cell-based, human; details: Homo sapiens
Procedure, shortened: (§1)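 Absorbance at 490 nm of solubilized formazan, produced during roughly 4 h MTT incubation, gave percent inhibition relative to negative control. Compounds spanned eight concentrations between 1 nM and 30 μM on cells plated overnight at 5,000-10,000 per well.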

3T3 cells = experiment: MTT cell proliferation assay, 3T3; format: cell-based, mouse; details: Mus musculus
Procedure, shortened: as §1

Z138 cells = experiment: MTT cell proliferation assay, Z138; format: cell-based; details: Homo sapiens
Procedure, shortened: as §1

[1] = MS751, MS751 cells, eight concentrations 1 nM to 30 μM, incubation approximately 64-72 hours, read-out: MTT Assay IC50, MS751
[2] = NIH3T3, 3T3 cells, eight concentrations 1 nM to 30 μM, incubation approximately 64-72 hours, read-out: MTT Assay IC50, 3T3
[3] = Z-138, Z138 cells, eight concentrations 1 nM to 30 μM, incubation approximately 64-72 hours, read-out: MTT Assay IC50, Z138
[4] = MS751, MS751 cells, approximately 64-72 hours incubation, read-out: MTT Assay IC50, MS751
[5] = NIH3T3, 3T3 cells, approximately 64-72 hours incubation, read-out: MTT Assay IC50, 3T3
[6] = Z-138, Z138 cells, approximately 64-72 hours incubation, read-out: MTT Assay IC50, Z138

| Structure (SMILES) | IC50 (MS751 cells; [1]) [µM] | IC50 (3T3 cells; [2]) [µM] | IC50 (Z138 cells; [3]) [µM] | IC50 (MS751 cells; [4]) [µM] | IC50 (3T3 cells; [5]) [µM] | IC50 (Z138 cells; [6]) [µM] | other results |
| --- | --- | --- | --- | --- | --- | --- | --- |
| CC(=O)c1ccc(-c2cc(Cl)c3c(c2)CC(CNC(=O)/C=C/c2cnccn2)O3)s1 (stereo not drawn) [Compound 258, (E)-N-((5-(5-acetylthiophen-2-yl)-7-chloro-2,3-dihydrobenzofuran-2-yl)methyl)-3-(pyrazin-2-yl)acrylamide] | > 30 | > 30 | > 30 | – | – | – | – |
| CC(=O)c1ccc(-c2cc(Cl)c3c(c2)CC(CNC(=O)/C(C)=C/c2cccnc2)O3)s1 (stereo not drawn) [Compound 262, (E)-N-((5-(5-acetylthiophen-2-yl)-7-chloro-2,3-dihydrobenzofuran-2-yl)methyl)-2-methyl-3-(pyridin-3-yl) acrylamide] | 5 to 30 | > 30 | 5 to 30 | – | – | – | – |
| CC(=O)c1ccc(-c2cc(Cl)c3c(c2)CC(CNC(=O)/C=C/c2cscn2)O3)s1 (stereo not drawn) [Compound 272, (E)-N-((5-(5-Acetylthiophen-2-yl)-7-chloro-2,3-dihydrobenzofuran-2-yl)methyl)-3-(thiazol-4-yl)acrylamide] | > 30 | 5 to 30 | > 30 | – | – | – | – |
| CC(=O)c1ccc(-c2cc(Cl)c3c(c2)CC(CNC(=O)/C=C/c2ccnnc2)O3)s1 (stereo not drawn) [Compound 273, (E)-N-((5-(5-acetylthiophen-2-yl)-7-chloro-2,3-dihydrobenzofuran-2-yl)methyl)-3-(pyridazin-4-yl)acrylamide] | > 30 | > 30 | 5 to 30 | – | – | – | – |
| CCn1nccc1/C=C/C(=O)NCC1Cc2cc(-c3ccc(C(C)=O)s3)cc(Cl)c2O1 (stereo not drawn) [Compound 274, (E)-N-((5-(5-acetylthiophen-2-yl)-7-chloro-2,3-dihydrobenzofuran-2-yl)methyl)-3-(1-ethyl-1H-pyrazol-5-yl)acrylamide] | 5 to 30 | > 30 | 5 to 30 | – | – | – | – |
| Cc1cc(Cl)c2c(c1)CC(CNC(=O)/C=C/c1cccnc1)O2 (stereo not drawn) [Compound 275, (E)-N-((7-chloro-5-methyl-2,3-dihydrobenzofuran-2-yl)methyl)-3-(pyridin-3-yl)acrylamide] | 5 to 30 | > 30 | 5 to 30 | – | – | – | – |
| CC(=O)c1ccc(-c2cc(Cl)c3c(c2)CC(CNC(=O)/C=C/c2c(Cl)nc4sccn24)O3)s1 (stereo not drawn) [Compound 276, (E)-N-((5-(5-acetylthiophen-2-yl)-7-chloro-2,3-dihydrobenzofuran-2-yl)methyl)-3-(6-chloroimidazo[2,1-b]thiazol-5-yl)acrylamide] | > 30 | > 30 | > 30 | – | – | – | – |
| CC(=O)c1ccc(-c2cc(Cl)c3c(c2)CC(CNC(=O)/C=C/c2cc(C)on2)O3)s1 (stereo not drawn) [Compound 277, (E)-N-((5-(5-acetylthiophen-2-yl)-7-chloro-2,3-dihydrobenzofuran-2-yl)methyl)-3-(5-methylisoxazol-3-yl)acrylamide] | 0.1 to 5 | > 30 | > 30 | – | – | – | – |
| CC(=O)c1ccc(-c2cc(Cl)c3c(c2)CC(CNC(=O)/C=C/c2ncc[nH]2)O3)s1 (stereo not drawn) [Compound 278, (E)-N-((5-(5-acetylthiophen-2-yl)-7-chloro-2,3-dihydrobenzofuran-2-yl)methyl)-3-(1H-imidazol-2-yl)acrylamide] | > 30 | > 30 | > 30 | – | – | – | – |
| CC(=O)c1ccc(-c2cc(Cl)c3c(c2)CC(CNC(=O)/C=C/c2cccnn2)O3)s1 (stereo not drawn) [Compound 279, (E)-N-((5-(5-acetylthiophen-2-yl)-7-chloro-2,3-dihydrobenzofuran-2-yl)methyl)-3-(pyridazin-3-yl)acrylamide] | 0.1 to 5 | 0.1 to 5 | 0.1 to 5 | – | – | – | – |
| CC(=O)c1ccc(-c2cc(Cl)c3c(c2)CC(CNC(=O)/C=C/c2cncc(C)c2)O3)s1 (stereo not drawn) [Compound 280, (E)-N-((5-(5-acetylthiophen-2-yl)-7-chloro-2,3-dihydrobenzofuran-2-yl)methyl)-3-(5-methylpyridin-3-yl)acrylamide] | – | – | – | 0.1 to 5 | > 30 | 0.1 to 5 | – |
| CC(=O)c1ccc(-c2cc(Cl)c3c(c2)CC(CNC(=O)/C=C/c2csnn2)O3)s1 (stereo not drawn) [Compound 281, (E)-N-((5-(5-acetylthiophen-2-yl)-7-chloro-2,3-dihydrobenzofuran-2-yl)methyl)-3-(1,2,3-thiadizol-5-yl)acrylamide] | – | – | – | > 30 | > 30 | > 30 | – |
| CC(=O)c1ccc(-c2cc(Cl)c3c(c2)CC(CNC(=O)/C=C(/C)c2cccnc2)O3)s1 (stereo not drawn) [Compound 282, (Z)-N-((5-(5-Acetylthiophen-2-yl)-7-chloro-2,3-dihydrobenzofuran-2-yl)methyl)-3-(pyridin-3-yl)but-2-enamide] | – | – | – | 0.1 to 5 | > 30 | 0.1 to 5 | – |
| CC(=O)c1ccc(-c2cc(Cl)c3c(c2)CC(CNC(=O)/C=C(\C)c2cccnc2)O3)s1 (stereo not drawn) [Compound 283, (E)-N-((5-(5-acetylthiophen-2-yl)-7-chloro-2,3-dihydrobenzofuran-2-yl)methyl)-3-(pyridin-3-yl)but-2-enamide] | – | – | – | 5 to 30 | > 30 | 5 to 30 | – |
| CC(=O)c1ccc(-c2cc(Cl)c3c(c2)CC(CNC(=O)/C=C/c2c(C)nn(-c4ccc(F)cc4)c2Cl)O3)s1 (stereo not drawn) [Compound 284, (E)-N-((5-(5-acetylthiophen-2-yl)-7-chloro-2,3-dihydrobenzofuran-2-yl)methyl)-3-(5-chloro-1-(4-fluorophenyl)-3-methyl-1H-pyrazol-4-yl)acrylamide] | – | – | – | > 30 | > 30 | > 30 | – |
| CC(=O)c1ccc(-c2cc(Cl)c3c(c2)CC(CNC(=O)/C=C/c2cc(C)n(-c4nccs4)c2C)O3)s1 (stereo not drawn) [Compound 285, (E)-N-((5-(5-Acetylthiophen-2-yl)-7-chloro-2,3-dihydrobenzofuran-2-yl)methyl)-3-(2,5-dimethyl-1-(thiazol-2-yl)-1H-pyrrol-3-yl)acrylamide] | – | – | – | > 30 | > 30 | > 30 | – |
| CC(=O)c1ccc(-c2cc(Cl)c3c(c2)CC(CNC(=O)/C(C#N)=C/c2ccoc2)O3)s1 (stereo not drawn) [Compound 286, (E)-N-((5-(5-acetylthiophen-2-yl)-7-chloro-2,3-dihydrobenzofuran-2-yl)methyl)-2-cyano-3-(furan-3-yl) acrylamide] | – | – | – | – | – | – | IC50 (MS751 cells; MS751, read-out: MTT Assay IC50, MS751): 5 to 30 µM; IC50 (3T3 cells; NIH3T3, read-out: MTT Assay IC50, 3T3): > 30 µM; IC50 (Z138 cells; Z-138, read-out: MTT Assay IC50, Z138): 5 to 30 µM |
| CC(=O)c1ccc(-c2cc(Cl)c3c(c2)CC(CNC(=O)/C=C/c2c(C)nn4c(C(F)(F)F)ccnc24)O3)s1 (stereo not drawn) [Compound 287, (E)-N-((5-(5-acetylthiophen-2-yl)-7-chloro-2,3-dihydrobenzofuran-2-yl)methyl)-3-(2-methyl-7-(trifluoromethyl)pyrazolo[1,5-a]pyrimidin-3-yl) acryl amide] | – | – | – | > 30 | > 30 | > 30 | – |
| CC(=O)c1ccc(-c2cc(Cl)c3c(c2)CC(CNC(=O)/C=C/c2cc(C)n(-c4cc(C)on4)c2C)O3)s1 (stereo not drawn) [Compound 288, (E)-N-((5-(5-acetylthiophen-2-yl)-7-chloro-2,3-dihydrobenzofuran-2-yl)methyl)-3-(2,5-dimethyl-1-(5-methylisoxazol-3-yl)-1H-pyrrol-3-yl)acrylamide] | – | – | – | > 30 | > 30 | > 30 | – |
| CC(=O)c1ccc(-c2cc(Cl)c3c(c2)CC(CNC(=O)/C=C/c2cc4cnn(C(C)C)c4[nH]c2=O)O3)s1 (stereo not drawn) [Compound 289, (E)-N-((5-(5-acetylthiophen-2-yl)-7-chloro-2,3-dihydrobenzofuran-2-yl)methyl)-3-(1-isopropyl-6-oxo-6,7-dihydro-1H-pyrazolo[3,4-b]pyridin-5-yl)acrylamide] | – | – | – | 5 to 30 | > 30 | 0.1 to 5 | – |
| CC(=O)c1ccc(-c2cc(Cl)c3c(c2)CC(CNC(=O)/C=C/c2nc4ccccc4o2)O3)s1 (stereo not drawn) [Compound 290, (E)-N-((5-(5-acetylthiophen-2-yl)-7-chloro-2,3-dihydrobenzofuran-2-yl)methyl)-3-(benzo[d]oxazol-2-yl)acrylamide] | – | – | – | > 30 | > 30 | > 30 | – |
| CC(=O)c1ccc(-c2cc(Cl)c3c(c2)CC(CNC(=O)/C=C/c2sc4ccccc4c2Cl)O3)s1 (stereo not drawn) [Compound 291, (E)-N-((5-(5-acetylthiophen-2-yl)-7-chloro-2,3-dihydrobenzofuran-2-yl)methyl)-3-(3-chlorobenzo[b]thiophen-2-yl)acrylamide] | – | – | – | > 30 | > 30 | > 30 | – |
| CC(=O)c1ccc(-c2ccc3c(c2)CC(CNC(=O)/C=C/c2cccnc2)O3)s1 (stereo not drawn) [Compound 292, (E)-N-((5-(5-acetylthiophen-2-yl)-2,3-dihydrobenzofuran-2-yl)methyl)-3-(pyridin-3-yl)acrylamide] | – | – | – | 0.1 to 5 | 0.1 to 5 | 0.1 to 5 | – |
| CC(=O)c1ccc(-c2cc(Cl)c3c(c2)CC(CNC(=O)/C=C/c2ccno2)O3)s1 (stereo not drawn) [Compound 293, (E)-N-((5-(5-acetylthiophen-2-yl)-7-chloro-2,3-dihydrobenzofuran-2-yl)methyl)-3-(isoxazol-5-yl)acrylamide] | – | – | – | > 30 | > 30 | > 30 | – |
| CNc1ccc(/C=C/C(=O)NCC2Cc3cc(-c4ccc(C(C)=O)s4)cc(Cl)c3O2)cn1 (stereo not drawn) [Compound 294, (E)-N-((5-(5-acetylthiophen-2-yl)-7-chloro-2,3-dihydrobenzofuran-2-yl)methyl)-3-(6-(methylamino)pyridin-3-yl)acrylamide] | – | – | – | 0.1 to 5 | 5 to 30 | 0.1 to 5 | – |
